Assays:
Assay type in all cases: in vivo, guinea pig (Cavia porcellus)
[1] = system: normal eye growth in guinea pigs; assay: Eye drops on normal growth and emmetropization (no lens wear); conditions: eye drops twice daily 9-16 days of age
Experimental: Two experimental protocols were employed (see Table 4). In Experiment 1, young guinea pigs wore a −6D lens on one eye from 5-12 days of age. They were randomly divided within each litter into two groups of 10 animals each, and received either a drop of L-Arginine (100 mM, 1.7%) in Saline (pH 7.4) or Saline alone (0.9%, pH 7.4) twice per day in the eye wearing the lens (Table 4). Drops were administered at the beginning of their light cycle and again approximately 6 hrs later in the middle of their day cycle. Lenses were removed during the drop administration which occurred under dim red light or in darkness. A single large drop was bathed on the cornea for 3 min in the lens-wearing eye in hand held animals. A clean lens was then reintroduced onto the eye. In Experiment 2, 14 guinea pigs were given eye drops in the same manner as in Experiment 1, but in both eyes and without any lens-wear, to determine the effect of the eye drops on normal eye growth. Animals received one drop of either 1.7% L-arginine (n=7) or atropine (Minims Atropine Sulphate 1%, Bausch & Lomb, preservative free, n=7) in one eye and saline (0.9%) in the other eye twice per day from 9-16 days of age.
In Experiment 1, at the end of the lens-wearing period, at 12 days of age just before the morning lights came on, both eyes were cyclopleged (1% Cyclopentolate—to paralyse the focussing muscles of the eye to a resting state) and 1.25 hours later, refractive error (RE) was measured. Animals were then anaesthetised with gaseous anaesthetic (1.5% isoflurane in oxygen) and eye length measures were taken in both eyes with high frequency ultrasound as described in Example 1. Biometry measures were also taken in the same manner before the lens wear period at 5 days of age. [No refractive measures were done at 5 days of age as cycloplegia could have interfered with the drug or lens response]. In Experiment 2, refractive error and eye length using ultrasound were measured in the same manner at 17 days of age, 24 hours after the previous drop was administered.
After cycloplegia was induced, refractive error was measured in each eye using an Autorefractor (Nidek AR-20, Japan). The spherical equivalent was calculated as the average of the sphere plus half the cylinder as is normal in clinical practice. All reported refractive errors are the spherical equivalent. Next, ocular length was measured using high frequency ultrasound (20 MHz) as previously described (McFadden et al, 2004). At least 20 traces were recorded for each eye and distances were averaged for at least 10 of these recordings. Peaks from the recordings were selected for the back of the cornea, the crystalline lens, and the vitreous chamber, and the layers at the back of the eye: the retina, choroid, and sclera. Ocular length was defined as the summed measurement from the front of the cornea to the back of the sclera.
Differences between the two eyes were analysed by a 2-tailed T-tests. The mean of calculated differences between the two eyes is referred to as relative myopia or relative ocular length and the difference in the change in ocular length in the treated compared to the untreated eye as relative growth.

[2] = system: recovery from myopia in guinea pigs; assay: Intravitreal nωPLA during recovery from −6D lens-induced myopia
Excerpt: That is, if up-regulation of nNOS was causal in the myopic recovery response, injections of nωPLA would be expected to inhibit the ability of the myopic eye recover from myopia.
(§1) In this second experiment, thirty four guinea pigs were raised and measured as described in Example 1. To induce myopia, animals wore a −6D lens on one eye from P6-P13, which was then removed for 3 days to initiate recovery from myopia, exactly as described in Example 1, Group 3. During the recovery period, animals received daily intravitreal injections (10 μl into the eye which had worn the lens) of either 6 mM nωPLA (PLA, n=9) or vehicle (0.9% isotonic saline, pH 7.4, n=11) on postnatal days P13, P14, and P15. To study the effect of the drugs on normal growth, a further seven animals were raised for the same period without lenses, and from P13 received a vehicle injection into the left eye and a 6 mM nωPLA injection into the right eye for 3 days. The dosage level of 6 mM refers to the concentration of nωPLA in the syringe. (Considerably smaller doses would be experienced at the level of the retina). In all animals, refractive error and axial parameters were measured in both eyes before and after the recovery period, at P13 and P16. In lens-wearing animals, untreated fellow eyes served as matched controls and data is expressed as the relative difference between the lens-wearing eye and the fellow eye.

[3] = system: normal growth of guinea pig eyes; assay: Intravitreal nωPLA on normal growth (animals without lenses); conditions: 6 mM nωPLA right eye vs vehicle left eye, 3 days from P13, no lenses
Experimental: as §1

| SMILES | ocular length on average ([1]; measured at 17 days, p=0.22 between groups) [mm] | mean refractive error, both eyes averaged ([1]; measured at 17 days, p=0.32 between groups) | effect on refractive error (drug eye vs saline eye) ([1]; no lens, 1.7% LA (p=0.69) or 1% Atropine (p=0.40)) | difference between the two eyes in ocular length (drug eye vs saline control eye) ([1]; LA p=0.39, ATR p=0.42) | difference between the eyes in refractive error after the three day recovery period ([2]; 6 mM nωPLA (in syringe) 10 μl intravitreal daily P13-P15, measured P16) [D] | ocular length relative to the saline group after the recovery period ([2]; 6 mM nωPLA intravitreal daily P13-P15, measured P16) | elongation in animals without myopia [3] | relative myopia in animals without myopia [3] |
| --- | --- | --- | --- | --- | --- | --- | --- | --- |
| CN1[C@@H]2CC[C@H]1C[C@@H](OC(=O)C(CO)c1ccccc1)C2 (some centres unmarked) [Atropine] | 8.192 | +5.08 | no difference in mean refractive error between the two eyes | +20 μm | – | – | – | – |
| CCCN=C(N)NCCC[C@H](N)C(=O)O [nωPLA, N-w-propyl-L-arginine] | – | – | – | – | −5.4 | had longer eyes | no influence | no influence |

— patent publication US10945980B2, “Treatment for myopia” (The University of Newcastle, priority 2016, dated 2021)
